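Protocol summary: plate cells (96-well), add compound at 5 concentrations, incubate 48 h, interpolate endpoints linearly. Here, GI50 denotes the concentration required for 50% inhibition of growth. TGI is the concentration that stops growth completely.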
Columns and labels:
Assay in all cases: NCI tumour cell line growth inhibition, 48 h
MALME-3M melanoma = system: MALME-3M melanoma
SN12C renal = system: SN12C renal
HCT-15 colon = system: HCT-15 colon
NCI-H23 lung = system: NCI-H23 lung
SK-MEL-5 melanoma = system: SK-MEL-5 melanoma
A549 NSCLC = system: A549 NSCLC
OVCAR-3 ovarian = system: OVCAR-3 ovarian
SNB-19 CNS = system: SNB-19 CNS
TK-10 renal = system: TK-10 renal

`CN(C)c1ccc(/C=N\N2C(=O)c3ccccc3C2=O)cc1` showed a TGI (MALME-3M melanoma) of over 100 µM, a TGI (SN12C renal) of over 100 µM and a TGI (HCT-15 colon) of over 100 µM. It also gave a TGI (NCI-H23 lung) of over 100 µM, a TGI (SK-MEL-5 melanoma) of over 100 µM and a TGI (A549 NSCLC) of over 100 µM. For the same molecule, the TGI (OVCAR-3 ovarian) was over 100 µM, the TGI (SNB-19 CNS) was over 100 µM and the TGI (TK-10 renal) was over 100 µM.

In the case of `CN(C)c1n/c(=N/c2ncn[nH]2)ss1`, the TGI (MALME-3M melanoma) was over 100 µM, the TGI (SN12C renal) was over 100 µM and the TGI (HCT-15 colon) was over 100 µM. The TGI (NCI-H23 lung) was over 100 µM, the TGI (SK-MEL-5 melanoma) was over 100 µM and the TGI (A549 NSCLC) was over 100 µM. For the same molecule, the TGI (SNB-19 CNS) was over 100 µM and the TGI (TK-10 renal) was over 100 µM.

For `O=C(NNC(=O)c1cc(/C=C/c2cccc([N+](=O)[O-])c2)[nH]c(=S)n1)Nc1ccc(Cl)cc1`, the TGI (MALME-3M melanoma) was over 100 µM, the TGI (SN12C renal) was over 100 µM and the TGI (HCT-15 colon) was over 100 µM. For the same molecule, the TGI (NCI-H23 lung) was over 100 µM, the TGI (SK-MEL-5 melanoma) was over 100 µM and the TGI (A549 NSCLC) was over 100 µM. For the same molecule, the TGI (OVCAR-3 ovarian) was over 100 µM and the TGI (TK-10 renal) was over 100 µM.

For `COC(OC)[C@@H](C)[C@H](O)[C@](C)(O)C1OC(C)(C)OC(C(C)C=C(C)C)C1C` (stereo partly drawn), the TGI (MALME-3M melanoma) was over 100 µM, the TGI (SN12C renal) was over 100 µM and the TGI (HCT-15 colon) was over 100 µM. The TGI (NCI-H23 lung) was over 100 µM, the TGI (SK-MEL-5 melanoma) was over 100 µM and the TGI (A549 NSCLC) was over 100 µM. It also gave a TGI (OVCAR-3 ovarian) of over 100 µM, a TGI (SNB-19 CNS) of over 100 µM and a TGI (TK-10 renal) of over 100 µM.

For `O=C(NO)C(=O)Nc1ccc(Cl)cc1[N+](=O)[O-]`, the TGI (MALME-3M melanoma) was over 100 µM, the TGI (SN12C renal) was over 100 µM and the TGI (HCT-15 colon) was over 100 µM. The TGI (NCI-H23 lung) was over 100 µM, the TGI (SK-MEL-5 melanoma) was over 100 µM and the TGI (A549 NSCLC) was over 100 µM. The TGI (OVCAR-3 ovarian) was over 100 µM, the TGI (SNB-19 CNS) was over 100 µM and the TGI (TK-10 renal) was over 100 µM.

With `CCCCCCCCCCCCN(O)C(=O)c1ccccc1` the TGI (MALME-3M melanoma) was 60.7 µM, the TGI (SN12C renal) was 71.4 µM and the TGI (HCT-15 colon) was over 100 µM. For the same molecule, the TGI (NCI-H23 lung) was 52.2 µM, the TGI (A549 NSCLC) was over 100 µM and the TGI (OVCAR-3 ovarian) was over 100 µM. For the same molecule, the TGI (SNB-19 CNS) was over 100 µM and the TGI (TK-10 renal) was over 100 µM.

Work on `CCOC(=O)NC(=O)c1cn(CCN2CCN(C(=O)CCCCCCCCCCNc3ncnc4nc[nH]c34)CC2)c(=O)[nH]c1=O` yielded a TGI (MALME-3M melanoma) of over 100 µM, a TGI (SN12C renal) of over 100 µM and a TGI (HCT-15 colon) of over 100 µM. The TGI (NCI-H23 lung) was over 100 µM, the TGI (SK-MEL-5 melanoma) was over 100 µM and the TGI (A549 NSCLC) was over 100 µM. It also gave a TGI (OVCAR-3 ovarian) of over 100 µM, a TGI (SNB-19 CNS) of over 100 µM and a TGI (TK-10 renal) of over 100 µM.

`COc1ccc(/C(=N/NC(N)=O)C(c2ccc(OC)cc2)C2C(=O)Oc3ccccc32)cc1` (stereo not drawn) was tested, and the TGI (MALME-3M melanoma) was over 100 µM, the TGI (SN12C renal) was over 100 µM and the TGI (HCT-15 colon) was over 100 µM. The TGI (NCI-H23 lung) was over 100 µM, the TGI (SK-MEL-5 melanoma) was over 100 µM and the TGI (A549 NSCLC) was over 100 µM. The TGI (OVCAR-3 ovarian) was over 100 µM and the TGI (SNB-19 CNS) was over 100 µM.

Molecule `Cc1cc(C)c(S(=O)(=O)ONC(=O)OC(C)(C)C)c(C)c1` has a TGI (MALME-3M melanoma) of over 100 µM, a TGI (SN12C renal) of over 100 µM and a TGI (HCT-15 colon) of over 100 µM. For the same molecule, the TGI (NCI-H23 lung) was over 100 µM, the TGI (SK-MEL-5 melanoma) was over 100 µM and the TGI (A549 NSCLC) was over 100 µM. For the same molecule, the TGI (OVCAR-3 ovarian) was over 100 µM, the TGI (SNB-19 CNS) was over 100 µM and the TGI (TK-10 renal) was over 100 µM.

`COc1cc(-c2cc(=O)c3cc(C)c(C)c(C(=O)O)c3o2)cc(OC)c1OC` showed a TGI (MALME-3M melanoma) of over 100 µM, a TGI (SN12C renal) of over 100 µM and a TGI (HCT-15 colon) of over 100 µM. For the same molecule, the TGI (NCI-H23 lung) was over 100 µM, the TGI (SK-MEL-5 melanoma) was over 100 µM and the TGI (A549 NSCLC) was over 100 µM. The TGI (OVCAR-3 ovarian) was over 100 µM, the TGI (SNB-19 CNS) was over 100 µM and the TGI (TK-10 renal) was over 100 µM.

Work on `O=C(O)Cn1c(=O)[nH]c(=O)c2c1ncn2Cc1ccccc1` yielded a TGI (MALME-3M melanoma) of over 100 µM, a TGI (SN12C renal) of over 100 µM and a TGI (HCT-15 colon) of over 100 µM. For the same molecule, the TGI (NCI-H23 lung) was over 100 µM, the TGI (SK-MEL-5 melanoma) was over 100 µM and the TGI (A549 NSCLC) was over 100 µM. The TGI (OVCAR-3 ovarian) was over 100 µM, the TGI (SNB-19 CNS) was over 100 µM and the TGI (TK-10 renal) was over 100 µM.

With `Cc1ccc(C)c(NC(=O)CCc2nc(=S)[nH][nH]2)c1` the TGI (MALME-3M melanoma) was over 100 µM, the TGI (SN12C renal) was over 100 µM and the TGI (HCT-15 colon) was over 100 µM. It also gave a TGI (NCI-H23 lung) of over 100 µM, a TGI (SK-MEL-5 melanoma) of over 100 µM and a TGI (A549 NSCLC) of over 100 µM. For the same molecule, the TGI (OVCAR-3 ovarian) was over 100 µM, the TGI (SNB-19 CNS) was over 100 µM and the TGI (TK-10 renal) was over 100 µM.

`O=C(CC(=O)C1CCOC1=O)C(=O)Nc1ccc(Cl)cc1Cl` (stereo not drawn) gave a TGI (MALME-3M melanoma) of over 100 µM, a TGI (SN12C renal) of over 100 µM and a TGI (HCT-15 colon) of over 100 µM. For the same molecule, the TGI (NCI-H23 lung) was over 100 µM, the TGI (SK-MEL-5 melanoma) was over 100 µM and the TGI (A549 NSCLC) was over 100 µM. For the same molecule, the TGI (OVCAR-3 ovarian) was over 100 µM, the TGI (SNB-19 CNS) was over 100 µM and the TGI (TK-10 renal) was over 100 µM.

In the case of `CCC(C(=O)[O-])C(=O)[O-].CCC(C(=O)[O-])C(=O)[O-].N.N.NCCCCCCN.[Pt+4].[Pt+4]`, the GI50 (MALME-3M melanoma) was 1 µM, the TGI (MALME-3M melanoma) was 1.9 µM and the GI50 (SN12C renal) was 8.66 µM. The TGI (SN12C renal) was 17.1 µM, the GI50 (HCT-15 colon) was 5 µM and the TGI (HCT-15 colon) was 13.8 µM. For the same molecule, the GI50 (NCI-H23 lung) was 9.84 µM, the TGI (NCI-H23 lung) was 24.5 µM and the GI50 (SK-MEL-5 melanoma) was 3.35 µM. The TGI (SK-MEL-5 melanoma) was 9.46 µM, the GI50 (A549 NSCLC) was 10.8 µM and the TGI (A549 NSCLC) was 24.1 µM. For the same molecule, the GI50 (OVCAR-3 ovarian) was 9 µM, the TGI (OVCAR-3 ovarian) was 16.3 µM and the GI50 (SNB-19 CNS) was 10.3 µM. It also gave a TGI (SNB-19 CNS) of 21.9 µM, a GI50 (TK-10 renal) of 8.23 µM and a TGI (TK-10 renal) of 15.1 µM.

Molecule `COc1ccc(CNc2nc3c(NC(C)=O)cc(C(F)(F)F)cc3nc2-c2ccccc2)cc1OC` has a TGI (MALME-3M melanoma) of over 100 µM, a TGI (SN12C renal) of over 100 µM and a TGI (HCT-15 colon) of over 100 µM. It also gave a TGI (NCI-H23 lung) of over 100 µM, a TGI (SK-MEL-5 melanoma) of over 100 µM and a TGI (A549 NSCLC) of over 100 µM. For the same molecule, the TGI (OVCAR-3 ovarian) was over 100 µM, the TGI (SNB-19 CNS) was over 100 µM and the TGI (TK-10 renal) was over 100 µM.

With `Cc1ccc2[nH]c3c(ncc4[nH]c5ccccc5c43)c2c1` the TGI (MALME-3M melanoma) was 33.7 µM, the TGI (SN12C renal) was 30.2 µM and the TGI (NCI-H23 lung) was over 10 µM. It also gave a TGI (A549 NSCLC) of 32.7 µM, a TGI (OVCAR-3 ovarian) of over 10 µM and a TGI (SNB-19 CNS) of 31.6 µM. For the same molecule, the TGI (TK-10 renal) was 37.6 µM.

For `COC12CC(=O)C(C(C)=O)=C(O)C1(C)c1c(OC(C)=O)c(C)c(O)c(C(C)=O)c1O2` (stereo not drawn), the TGI (MALME-3M melanoma) was 60.2 µM, the TGI (SN12C renal) was 64.7 µM and the TGI (HCT-15 colon) was over 100 µM. The TGI (NCI-H23 lung) was 31.3 µM, the TGI (A549 NSCLC) was over 100 µM and the TGI (OVCAR-3 ovarian) was 69.9 µM. The TGI (SNB-19 CNS) was over 100 µM and the TGI (TK-10 renal) was 69.7 µM.

In the case of `Cn1c2c(c3ccccc31)CCN(CCCCN1CCN(c3cccc(Cl)c3)CC1)C2=O`, the TGI (SN12C renal) was 25.8 µM, the TGI (HCT-15 colon) was 29.7 µM and the TGI (NCI-H23 lung) was 27.4 µM. The TGI (SK-MEL-5 melanoma) was 21.8 µM, the TGI (A549 NSCLC) was 70.2 µM and the TGI (OVCAR-3 ovarian) was 34 µM. It also gave a TGI (SNB-19 CNS) of 42.8 µM and a TGI (TK-10 renal) of 25.1 µM.
